# Read-outs that look alike come from different tables or passages of the source.
# Key:
# [1] = pH of excipient-containing incubating solutions; assay type: physicochemical
# Procedure: (§1) For each concentration of tested compound, pH and osmolarity parameters were measured.
# [2] = Osmolarity of excipient-containing incubating solutions; assay type: physicochemical
# Procedure: Osmolarity was measured using osmometer type 13/13DR from Roebling (Berlin, GR).
# as §1
# [3] = system: ARPE-19 cells; assay: MTT cell viability assay on ARPE-19 cells; details: for Cell survival: 0.1% (w/v)
# Description: (§2) Cell viability and cell morphology were examined to evaluate the toxicity of excipients on retinal pigment epithelial cells. The human retina cell line used in these experiments is the ARPE-19 cell line (human adult-derived retinal pigmented epithelial cells). […] They form tight-junctions with transepithelial resistance of monolayers (Dunn K C et al., supra). From a molecular standpoint, it appears that ARPE-19 express a huge pattern of genes similar to those expressed by human RPE from fresh explant which could account for their physiological function (Klimanskaya I. et al., “Derivation and comparative assessment of retinal pigment epithelium from human embryonic stem cells using transcriptomics”, Cloning and Stem Cells, 2004, 6(3):217-45).
# (§3) ARPE-19 cells are widely used as a retinal model that resemble physiological properties of RPE cells. Similar methods of culturing ARPE-19 cells and cytotoxicity assays can be found in Yeung et al., “Cytotoxicity of triamcinolone on cultured human retinal pigment epithelial cells: comparison with dexamethasone and hydrocortisone”, Jpn J. Ophthalmol, 2004; 48:236-242. Cell viability and cell morphology were examined using conventional colormetric and visual methods. Viability and morphology measurements were obtained at 24 hours, 48 hours, and 72 hours after exposure to an excipient composition.
# (§4) To assess cell viability, mitochondrial metabolism was quantified through conventional colorometric assays (i.e., the MTT assay). This calorimetric assay utilizes 3-(4,5-dimethylthiazol-2-yl)-2,5-diphenyltetrazolium bromide (MTT) and correlates mitochondrial metabolism and cell viability through measurement of dehydrogenase activity which converts a substrate into crystal. More specifically, the assay measures the activity of living cells through mitochondrial dehydrogenases. When dissolved in culture cell medium, MTT solution appears dark orange. Mitochondrial dehydrogenases of viable cells degrade MTT by cleaving the tetrazolium ring yielding to formation of a purple formazan crystal, which is insoluble in water. Crystals are subsequently dissolved in isopropanol solution. A resulting purple solution is spectrophotometrically measured. Cell viability is relative to amount of formazan and calculated as a percentage of remaining treated compared to non-treated cells.
# (§5) Results from the MTT assay were expressed as a percentage of cell viability calculated using the following equation: % cell viability=ODtest/ODcontrol×100.
# (§6) For each experiment, one concentration was performed in triplicate. Each point was spectrophotometrically read twice. Average of readings was calculated, then average from these 3 values was determined.
# (§7) After 3 experiments were independently completed under the same conditions, a graph was plotted with cell viability expressed as a function of concentration (dose response) and for various incubation period (time course). The IC50 was then estimated based on the graphed data.
# (§8) More specifically, cell density in 24-multiwell plates was observed on the day of the experiment to check if confluence of the cells was reached. Aliquots of MTT concentrated solutions were removed from a freezer at −20° C. and thawed at room temperature. Cell medium was warmed at 37° C. before use. Appropriated tubes for diluting compounds were prepared. Higher concentrations of each excipient agent was prepared. Serial dilution was then performed in cell medium (DMEM:F12+10% FBS).
# (§9) Cell culture medium in the 24-well plate was removed using vacuum-pump. Cells were then stimulated with 0.5 ml final volume for each concentration of one given excipient agent. Distribution of the excipient-containing solution was performed using automated pipet-aid in sterile environment (under PSM) or not depending on time of compounds and duration of incubation.
# (§10) After stimulation, cells were replaced in a CO2 incubator for the required time of exposure.
# [4] = system: ARPE-19 cells; assay type: cell-based
# Procedure: Cell morphology was visualized using light microscopy. Cell morphology observation using light microscopy permits determination of (i) cell number and density and (ii) whether or not cells in contact with an excipient agent display modified phenotype compared to a non-treated population of cells.
# Cell morphology was analyzed in parallel by semi-quantitative scoring ranging from 5 to 1, from basal to lethal phenotype respectively, as shown in FIG. 23.
# More specifically, cells were removed from an incubator for examination. Morphological shape of cells was visualized using a light microscope and CCD camera. Every 3 wells of a given concentration was observed through image analysis software. Then, a representative photograph describing the average appearance of cells was saved. The supernatant was either, kept for further predefined experiments to perform, or removed using vacuum-pump.
# Resulting semi-quantitative scoring is represented as a function of time course and dose response. Score 5 : wild type phenotype of non-treated cells, 100% confluent adherent cells. This phenotype very much vary following post-seeding time. For example, at confluence ARPE-19 cells at 1 day appear well defined with visible outer membrane and dark grey cytoplasm. After 3 days of confluence, limits between cells become less visible and cells adopt a more hexagonal shape and constitute an epithelium-like uniform dense structure. Score 4: density <100%. Cell shape has changed, some spaces are present between cells, few cells possibly detached. Score 3: 80% <Cell density <40%. Spaces are sometimes present among cells, areas appears confluent while in others, cells detached. General cell shape starts showing non negligible alterations. Score 2: Cell density <50%. Cells adopt exclusively stressed appearance, presence of mass dead floating cells. Score 1: Cell density <10%. Presence of almost exclusively dead cells.
# Based on quotation, each condition of the applied compound was given a score which allow to a morphology evolution profile to be prepared, ie. cell morphology as a function of compound concentration and time of exposure. […]
# [5] = in vitro; details: human, Cell viability
# Description: as §2, §3, §4, §5, §6, §7, §8, §9, §10
compound,measurement,setting,value
"OCc1ccccc1 [Benzyl alcohol, benzyl alcohol]",pH of excipient dilution,[1]; 0.05% in culture medium,8
same,pH of excipient dilution,[1]; 0.1% in culture medium,8.1
same,pH of excipient dilution,[1]; 0.5% in culture medium,8
same,pH of excipient dilution,[1]; 1% in culture medium,7.9
same,pH of excipient dilution,[1]; 2% in culture medium,8
same,pH of excipient dilution,[1]; […] in culture medium,7.9
same,Osmolarity of excipient dilution,[2]; 0.05% in culture medium,293 mOsm
same,Osmolarity of excipient dilution,[2]; 0.1% in culture medium,307 mOsm
same,Osmolarity of excipient dilution,[2]; 0.5% in culture medium,347 mOsm
same,Osmolarity of excipient dilution,[2]; 1% in culture medium,398 mOsm
same,Osmolarity of excipient dilution,[2]; 2% in culture medium,493 mOsm
same,Osmolarity of excipient dilution,[2]; […] in culture medium,444 mOsm
same,MTT IC50 (%),"[3]; ARPE-19 cells, summary Table 3",0.07%
same,"Cell viability, experiments 1, 2, 3","[3]; human, 72 h, 0.05 %",50.8%
same,Living cells (observation),[4],no living cells survived
same,IC50 based on cell morphology,"[4]; ARPE-19, estimated from morphology data",about 0.07%
same,Morphology limit concentration (%),[4]; human,0.07%
same,"Cell morphology score, Mean","[4]; human, 24 h, 0.05 %",3.3
same,"Cell morphology score, Mean","[4]; human, 24 h, 0.1 %",3.0
same,"Cell morphology score, Mean","[4]; human, 24 h, 0.5 %",1.0
same,"Cell morphology score, Mean","[4]; human, 24 h, 1 %",1.0
same,"Cell morphology score, Mean","[4]; human, 24 h, 2 %",1.0
same,"Cell morphology score, Mean","[4]; human, 24 h, […]",1.0
same,"Cell morphology score, Mean","[4]; human, 48 h, 0.05 %",3.7
same,"Cell morphology score, Mean","[4]; human, 48 h, 0.1 %",3.0
same,"Cell morphology score, Mean","[4]; human, 48 h, 0.5 %",1.0
same,"Cell morphology score, Mean","[4]; human, 48 h, 1 %",1.0
same,"Cell morphology score, Mean","[4]; human, 48 h, 2 %",1.0
same,"Cell morphology score, Mean","[4]; human, 48 h, […]",1.0
same,"Cell morphology score, Mean","[4]; human, 72 h, 0.05 %",3.3
same,"Cell morphology score, Mean","[4]; human, 72 h, 0.1 %",3.0
same,"Cell morphology score, Mean","[4]; human, 72 h, 0.5 %",1.0
same,"Cell morphology score, Mean","[4]; human, 72 h, 1 %",1.0
same,"Cell morphology score, Mean","[4]; human, 72 h, 2 %",1.0
same,"Cell morphology score, Mean","[4]; human, 72 h, […]",1.0
"CCCCCCCC/C=C\CCCCCCCC(=O)OCCOCC(OCCO)C1OCC(OCCO)C1OCCO (centres unmarked) [Polysorbate 80, polysorbate 80]",pH of excipient dilution,[1]; 0.01% in culture medium,7.5
same,pH of excipient dilution,[1]; 0.02% in culture medium,7.6
same,pH of excipient dilution,[1]; 0.04% in culture medium,7.5
same,pH of excipient dilution,[1]; 0.06% in culture medium,7.5
same,pH of excipient dilution,[1]; 0.08% in culture medium,7.5
same,pH of excipient dilution,[1]; 0.1% in culture medium,7.6
same,Osmolarity of excipient dilution,[2]; 0.01% in culture medium,310 mOsm
same,Osmolarity of excipient dilution,[2]; 0.02% in culture medium,307 mOsm
same,Osmolarity of excipient dilution,[2]; 0.04% in culture medium,313 mOsm
same,Osmolarity of excipient dilution,[2]; 0.06% in culture medium,346 mOsm
same,Osmolarity of excipient dilution,[2]; 0.08% in culture medium,390 mOsm
same,Osmolarity of excipient dilution,[2]; 0.1% in culture medium,523 mOsm
same,Cell survival,[3],substantially zero cell survival
same,Cell survival,[3]; listed as Tween80,lethality
same,"viability at 24 h, 0.01 %",[5]; Mean (%),93.5%
same,"viability at 24 h, 0.02 %",[5]; Mean (%),98.6%
same,"viability at 24 h, 0.04 %",[5]; Mean (%),104%
same,"viability at 24 h, 0.06 %",[5]; Mean (%),101%
same,"viability at 24 h, 0.08 %",[5]; Mean (%),82.3%
same,"viability at 24 h, 0.1 %",[5]; Mean (%),3.9%
same,"viability at 48 h, 0.01 %",[5]; Mean (%),110%
same,"viability at 48 h, 0.02 %",[5]; Mean (%),118%
same,"viability at 48 h, 0.04 %",[5]; Mean (%),125%
same,"viability at 48 h, 0.06 %",[5]; Mean (%),128%
same,"viability at 48 h, 0.08 %",[5]; Mean (%),72.9%
same,"viability at 48 h, 0.1 %",[5]; Mean (%),0.5%
same,"viability at 72 h, 0.01 %",[5]; Mean (%),120%
same,"viability at 72 h, 0.02 %",[5]; Mean (%),126%
same,"viability at 72 h, 0.04 %",[5]; Mean (%),142%
same,"viability at 72 h, 0.06 %",[5]; Mean (%),157%
same,"viability at 72 h, 0.08 %",[5]; Mean (%),74.8%
same,"viability at 72 h, 0.1 %",[5]; Mean (%),0.6%
same,"viability at 24 h, 0.01 %","[5]; experiments 1, 2, 3",90.3%
same,"viability at 24 h, 0.02 %","[5]; experiments 1, 2, 3",91.8%
same,"viability at 48 h, 0.01 %","[5]; experiments 1, 2, 3",109%
same,"viability at 48 h, 0.02 %","[5]; experiments 1, 2, 3",122%
same,"viability at 48 h, 0.04 %","[5]; experiments 1, 2, 3",126%
same,"viability at 72 h, 0.01 %","[5]; experiments 1, 2, 3",122%
same,"viability at 72 h, 0.02 %","[5]; experiments 1, 2, 3",129%
same,"viability at 72 h, 0.04 %","[5]; experiments 1, 2, 3",138%
same,"viability at 72 h, 0.06 %","[5]; experiments 1, 2, 3",148%
hyaluronic acid [HA],Cell viability,[3],~25%

# From patent US20050250737A1, “Therapeutic ophthalmic compositions containing retinal friendly excipients and related methods” (Allergan, Inc., priority 2003, published 2005)
